Assay results published in ChEMBL document CHEMBL4619763 (J Nat Prod, 2020).
Activity calls are given as the source filed them. The rule behind the calls is not given here.

Tests used:
Rattus norvegicus [1] = experiment: Anti-urolithic activity in spontaneous hypertensive Wistar rats assessed as reduction in CaOx crystal formation in cumulative urine at 0.1 mg/kg, po administered via gavage in presence of sodium oxalate by Neubauer counting chamber method relative to control; assay type: functional; design: scale not given: the % may be the effect or the level left
Rattus norvegicus [2] = experiment: Diuretic activity in normotensive Wistar rat assessed as urine conductivity at 0.1 mg/kg, ip after 8 hrs (reference value: 24.87 +/- 0.54 mS/cm); assay type: functional
Rattus norvegicus [3] = experiment: Diuretic activity in normotensive Wistar rat assessed as urinary potassium excretion at 0.01 mg/kg, po administered via gavage after 8 hrs (reference value: 22.39 to 24.21 mmol/L); assay type: ADME, organism-based; settings: in vivo
Rattus norvegicus [4] = experiment: Diuretic activity in normotensive Wistar rat assessed as urinary sodium excretion at 0.1 mg/kg, po administered via gavage after 8 hrs in presence of amiloride (reference value: 61.82 to 80.81 mmol/L); assay type: functional
Rattus norvegicus [5] = experiment: Diuretic activity in normotensive Wistar rat assessed as urinary potassium excretion at 0.1 mg/kg, po administered via gavage after 8 hrs in presence of furosemide (reference value: 22.39 to 24.21 mmol/L); assay type: ADME, organism-based; settings: in vivo
Rattus norvegicus [6] = experiment: Diuretic activity in normotensive Wistar rat assessed as urinary calcium excretion at 0.1 mg/kg, […] administered via gavage after 8 hrs (reference value: 5.28 +/- 0.09 mg/dl); assay type: functional
[7] = Toxicity in spontaneous hypertensive Wistar rat assessed as changes in plasma sodium level at 0.1 mg/kg, po administered for 7 days; assay type: organism-based; settings: in vivo, 168 h
[8] = Toxicity in normotensive Wistar rat assessed as changes in plasma AST level at 0.1 mg/kg, po administered for 7 days; assay type: organism-based; settings: in vivo, 168 h
Rattus norvegicus [9] = experiment: Diuretic activity in normotensive Wistar rat assessed as urine pH at 0.1 mg/kg, po administered via gavage after 8 hrs in presence of amiloride (reference value: 6.14 to 6.21); assay type: functional
Rattus norvegicus [10] = experiment: Diuretic activity in normotensive Wistar rat assessed as urinary potassium excretion at 0.1 mg/kg, po administered via gavage after 8 hrs in presence of indomethacin (reference value: 22.39 to 24.21 mmol/L); assay type: ADME, organism-based; settings: in vivo
Rattus norvegicus [11] = experiment: Diuretic activity in normotensive Wistar rat assessed as urinary calcium excretion at 0.1 mg/kg, po administered via gavage after 8 hrs in presence of L-NAME (reference value: 5.93 to 6.87 mg/dl); assay type: functional
Rattus norvegicus [12] = experiment: Cardioprotective activity in spontaneous hypertensive Wistar rat assessed as effect on heart weight at 0.1 mg/kg, po administered for 7 days; assay type: functional, organism-based
Rattus norvegicus [13] = experiment: Diuretic activity in normotensive Wistar rat assessed as urine pH at 0.1 mg/kg, po administered via gavage after 8 hrs in presence of hydrochlorothiazide (reference value: 6.14 to 6.21); assay type: functional
Rattus norvegicus [14] = experiment: Diuretic activity in normotensive Wistar rat assessed as increase in urine volume at 0.1 mg/kg, po administered via gavage for 7 days; assay type: functional, organism-based
[15] = Toxicity in spontaneous hypertensive Wistar rat assessed as changes in plasma nitrite acid level at 0.1 mg/kg, po administered for 7 days; assay type: organism-based; settings: in vivo, 168 h
Rattus norvegicus [16] = experiment: Diuretic activity in normotensive Wistar rat assessed as urine conductivity at 0.01 mg/kg, po administered via gavage after 8 hrs (reference value: 19.54 +/- 0.98 mS/cm); assay type: functional
[17] = Toxicity in normotensive Wistar rat assessed as changes in plasma sodium level at 0.1 mg/kg, po administered for 7 days; assay type: organism-based; settings: in vivo, 168 h
Rattus norvegicus [18] = experiment: Diuretic activity in normotensive Wistar rat assessed as urinary sodium excretion at 0.1 mg/kg, po administered via gavage after 8 hrs in presence of hydrochlorothiazide (reference value: 61.82 to 80.81 mmol/L); assay type: functional
Rattus norvegicus [19] = experiment: Anti-urolithic activity in normotensive Wistar rats assessed as reduction in CaOx crystal formation in cumulative urine at 0.1 mg/kg, po administered via gavage in presence of sodium oxalate by Neubauer counting chamber method relative to control; assay type: functional; design: scale not given: the % may be the effect or the level left
Rattus norvegicus [20] = experiment: Diuretic activity in normotensive Wistar rat assessed as urinary potassium excretion at 0.1 mg/kg, po administered via gavage after 8 hrs in presence of L-NAME (reference value: 22.39 to 24.21 mmol/L); assay type: ADME, organism-based; settings: in vivo
[21] = Toxicity in spontaneous hypertensive Wistar rat assessed as changes in plasma chloride level at 0.1 mg/kg, po administered for 7 days; assay type: organism-based; settings: in vivo, 168 h
Rattus norvegicus [22] = experiment: Diuretic activity in normotensive Wistar rat assessed as urine pH at 0.1 mg/kg, ip after 8 hrs (reference value: 6.05 +/- 0.22); assay type: functional
[23] = Toxicity in spontaneous hypertensive Wistar rat assessed as changes in urea level in urine at 0.1 mg/kg, po administered for 7 days; assay type: organism-based; settings: in vivo, 168 h
Rattus norvegicus [24] = experiment: Diuretic activity in normotensive Wistar rat assessed as decrease in urinary calcium excretion at 0.1 mg/kg, po administered via gavage for 7 days; assay type: functional, organism-based
Rattus norvegicus [25] = experiment: Renal protective activity in spontaneous hypertensive Wistar rat assessed as reduction in hypertension-induced Bowman's capsule thickening at 0.1 mg/kg, po administered via gavage for 7 days by hematoxylin and eosin staining based microscopic analysis; assay type: functional, organism-based
Rattus norvegicus [26] = experiment: Diuretic activity in normotensive Wistar rat assessed as urine conductivity at 1 mg/kg, ip after 8 hrs (reference value: 24.87 +/- 0.54 mS/cm); assay type: functional
Rattus norvegicus [27] = experiment: Diuretic activity in normotensive Wistar rat assessed as urinary sodium excretion at 1 mg/kg, ip after 8 hrs (reference value: 81.56 +/- 13.10 mmol/L); assay type: functional
Rattus norvegicus [28] = experiment: Diuretic activity in normotensive Wistar rat assessed as urinary chloride excretion at 1 mg/kg, po administered via gavage after 8 hrs (reference value: 135.10 to 143.70 mmol/L); assay type: functional
Rattus norvegicus [29] = experiment: Diuretic activity in normotensive Wistar rat assessed as urinary calcium excretion at 0.1 mg/kg, po administered via gavage after 8 hrs in presence of amiloride (reference value: 5.93 to 6.87 mg/dl); assay type: functional
Rattus norvegicus [30] = experiment: Diuretic activity in normotensive Wistar rat assessed as urine conductivity at 0.1 mg/kg, po administered via gavage after 8 hrs in presence of furosemide (reference value: 19.54 +/- 0.98 mS/cm); assay type: functional
Rattus norvegicus [31] = experiment: Diuretic activity in normotensive Wistar rat assessed as urinary potassium excretion at 1 mg/kg, po administered via gavage after 8 hrs (reference value: 22.39 to 24.21 mmol/L); assay type: ADME, organism-based; settings: in vivo
[32] = Toxicity in normotensive Wistar rat assessed as changes in urinary creatinine at 0.1 mg/kg, po administered for 7 days; assay type: organism-based; settings: in vivo, 168 h
Rattus norvegicus [33] = experiment: Diuretic activity in normotensive Wistar rat assessed as urinary chloride excretion at 0.01 mg/kg, ip […] after 8 hrs (reference value: 103.30 +/- 10.25 mmol/L); assay type: functional
Rattus norvegicus [34] = experiment: Diuretic activity in normotensive Wistar rat assessed as urine conductivity at 0.1 mg/kg, po administered via gavage after 8 hrs in presence of amiloride (reference value: 19.54 +/- 0.98 mS/cm); assay type: functional
Rattus norvegicus [35] = experiment: Diuretic activity in normotensive Wistar rat assessed as urine conductivity at 0.1 mg/kg, po administered via gavage after 8 hrs (reference value: 19.54 +/- 0.98 mS/cm); assay type: functional
[36] = Toxicity in spontaneous hypertensive Wistar rat assessed as changes in plasma uric acid level at 0.1 mg/kg, po administered for 7 days; assay type: organism-based; settings: in vivo, 168 h

## C[C@@H]1O[C@@H](Oc2c(-c3ccc(O)cc3)oc3cc(O)cc(O)c3c2=O)[C@H](O)[C@H](O)[C@H]1O [AFZELIN]
Rattus norvegicus [1]
  Activity: 92.53%
Rattus norvegicus [2]
  Activity: 24.35 mS/cm
Rattus norvegicus [3]
  Activity: 17.98 mmol/L
Rattus norvegicus [4]
  Activity: 79.24 mmol/L
Rattus norvegicus [5]
  Activity: 20.41 mmol/L
Rattus norvegicus [6]
  Activity: 5.51 mg/dL
[7]
  Activity: Non-Toxic
[8]
  Activity: Non-Toxic
Rattus norvegicus [9]
  pH: 6.26
Rattus norvegicus [10]
  Activity: 17.87 mmol/L
Rattus norvegicus [11]
  Activity: 4.82 mg/dL
Rattus norvegicus [12]
  Activity: inactive
Rattus norvegicus [13]
  pH: 6.42
Rattus norvegicus [14]
  Activity: Active
[15]
  Activity: Non-Toxic
Rattus norvegicus [16]
  Activity: 22.17 mS/cm
[17]
  Activity: Non-Toxic
Rattus norvegicus [18]
  Activity: 113.3 mmol/L
Rattus norvegicus [19]
  Activity: 41.3%
Rattus norvegicus [20]
  Activity: 14.84 mmol/L
[21]
  Activity: Non-Toxic
Rattus norvegicus [22]
  pH: 5.89
[23]
  Activity: Non-Toxic
Rattus norvegicus [24]
  Activity: Active
Rattus norvegicus [25]
  Activity: Active
Rattus norvegicus [26]
  Activity: 24.92 mS/cm
Rattus norvegicus [27]
  Activity: 62.46 mmol/L
Rattus norvegicus [28]
  Activity: 165.2 mmol/L
Rattus norvegicus [29]
  Activity: 4.74 mg/dL
Rattus norvegicus [30]
  Activity: 20.62 mS/cm
Rattus norvegicus [31]
  Activity: 22.5 mmol/L
[32]
  Activity: Non-Toxic
Rattus norvegicus [33]
  Activity: 96.18 mmol/L
Rattus norvegicus [34]
  Activity: 15.25 mS/cm
Rattus norvegicus [35]
  Activity: 17.05 - 18.31 mS/cm
[36]
  Activity: Non-Toxic
